The text below walks through data of patent publication US9637483B2, “Heterocyclic compound” (TAKEDA PHARMACEUTICAL COMPANY LIMITED, priority 2013, dated 2017).

Common to all, as to type: biochemical
Test [1] addresses T1, JAK2 (Homo sapiens, UniProt O60674).
T1 construct: purchased Invitrogen
The experiment in a line: JAK2 enzyme inhibition test (LANCE method). The note with it: 1 μM test compound; for inhibition at 1 µM: read-out: JAK2 enzyme inhibitory activity (%, 1 μM). On the procedure:
(§1) JAK2 enzyme inhibitory activity of test compounds was measured by the LANCE method (PerkinElmer). First, a test compound diluted with assay buffer (50 mM HEPES (pH 7.5), 10 mM MgCl2, 1 mM EGTA, 2 mM DTT, 0.01% Tween20, 0.01% BSA) was added to a 384-well plate by 2 μL each. Then, a JAK2 (Invitrogen) solution and a fluorescence-labeled peptide substrate (ULight-JAK1, PerkinElmer) solution diluted with assay buffer to 6 ng/mL and 300 nM, respectively, were added by 2 μL each. Then, an enzyme reaction was started by adding 2 μL each of ATP solution prepared with assay buffer to 45 μM. After the reaction at room temperature for 1 hr, Detection Buffer (PerkinElmer) prepared to contain 20 mM EDTA, 4 nM europium-labeled anti-phosphotyrosine antibody (PerkinElmer) was added by 6 μL each. After standing at room temperature for 1 hr, fluorescence intensity (excitation wavelength 340 nm, fluorescence wavelength 665 nm, delay time 100 microseconds) was measured by a plate reader, Envision (PerkinElmer). The inhibitory activity of each compound was calculated as a relative activity value to the fluorescence intensity of a well free of enzyme as 100% inhibition.
(In TR-FRET formats the signal depends on donor and acceptor labels being close together.)

The target of test [2] is T2, JAK1 (Homo sapiens, UniProt P23458).
T2 construct: purchased Invitrogen
The experiment in a line: JAK1 enzyme inhibition test (LANCE method). The note with it: 1 μM test compound; for inhibition at 1 µM: read-out: JAK1 enzyme inhibitory activity (%, 1 μM). On the procedure: as §1, with “JAK1 enzyme” for “JAK2 enzyme”, “a JAK1” for “a JAK2”, “to 187.5” for “to 6”, “to 150” for “to 45”

For test [3], the target named is T3, TYK2 (Homo sapiens, UniProt P29597).
T3 construct: purchased Invitrogen
In words: TYK2 enzyme inhibition test (LANCE method). The note with it: 1 μM test compound; for inhibition at 1 µM: read-out: TYK2 enzyme inhibitory activity (%, 1 μM). On the procedure:
as §1, with “TYK2 enzyme” for “JAK2 enzyme”, “a TYK2” for “a JAK2”, “to 375” for “to 6”, “to 30” for “to 45”

Test [4] concerns the target T4, JAK3 (Homo sapiens, UniProt P52333).
T4 construct: purchased Invitrogen
T4 sequence (P52333 1-1124): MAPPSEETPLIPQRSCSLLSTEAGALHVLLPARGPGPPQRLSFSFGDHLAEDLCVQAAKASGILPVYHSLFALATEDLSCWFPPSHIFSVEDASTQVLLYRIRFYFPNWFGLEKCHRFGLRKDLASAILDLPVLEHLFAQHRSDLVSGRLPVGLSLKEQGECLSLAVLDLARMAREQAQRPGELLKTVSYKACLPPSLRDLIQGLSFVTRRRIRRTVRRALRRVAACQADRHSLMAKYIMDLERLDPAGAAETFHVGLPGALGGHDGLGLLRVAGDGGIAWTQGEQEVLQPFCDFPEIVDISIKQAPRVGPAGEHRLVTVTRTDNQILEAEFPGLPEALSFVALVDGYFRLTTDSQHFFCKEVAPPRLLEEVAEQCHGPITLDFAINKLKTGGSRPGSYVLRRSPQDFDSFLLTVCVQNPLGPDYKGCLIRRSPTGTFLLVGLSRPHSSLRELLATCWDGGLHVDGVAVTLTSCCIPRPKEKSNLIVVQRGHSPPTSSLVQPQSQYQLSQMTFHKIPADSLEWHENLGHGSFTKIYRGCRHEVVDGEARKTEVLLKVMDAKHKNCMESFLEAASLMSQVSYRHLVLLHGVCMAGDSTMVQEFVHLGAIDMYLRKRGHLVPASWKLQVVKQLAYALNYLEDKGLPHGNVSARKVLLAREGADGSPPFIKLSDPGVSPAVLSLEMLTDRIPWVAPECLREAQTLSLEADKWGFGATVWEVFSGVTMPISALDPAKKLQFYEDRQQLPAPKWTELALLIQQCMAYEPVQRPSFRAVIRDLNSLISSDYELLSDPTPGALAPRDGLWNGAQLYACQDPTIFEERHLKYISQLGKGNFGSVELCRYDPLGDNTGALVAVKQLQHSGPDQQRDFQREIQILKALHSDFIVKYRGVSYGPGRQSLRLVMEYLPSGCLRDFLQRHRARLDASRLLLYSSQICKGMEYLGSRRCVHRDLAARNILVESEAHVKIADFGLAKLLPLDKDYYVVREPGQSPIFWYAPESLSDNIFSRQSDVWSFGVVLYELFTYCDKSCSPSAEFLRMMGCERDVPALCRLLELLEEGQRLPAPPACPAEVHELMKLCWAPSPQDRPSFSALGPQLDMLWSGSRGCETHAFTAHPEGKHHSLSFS
The experiment in a line: JAK3 enzyme inhibition test (LANCE method). The note with it: 1 μM test compound; for inhibition at 1 µM: read-out: JAK3 enzyme inhibitory activity (%, 1 μM). On the procedure:
as §1, with “JAK3 enzyme” for “JAK2 enzyme”, “a JAK3” for “a JAK2”, “to 12” for “to 6”, “to 15” for “to 45”

T3 sequence (P29597 whole entry): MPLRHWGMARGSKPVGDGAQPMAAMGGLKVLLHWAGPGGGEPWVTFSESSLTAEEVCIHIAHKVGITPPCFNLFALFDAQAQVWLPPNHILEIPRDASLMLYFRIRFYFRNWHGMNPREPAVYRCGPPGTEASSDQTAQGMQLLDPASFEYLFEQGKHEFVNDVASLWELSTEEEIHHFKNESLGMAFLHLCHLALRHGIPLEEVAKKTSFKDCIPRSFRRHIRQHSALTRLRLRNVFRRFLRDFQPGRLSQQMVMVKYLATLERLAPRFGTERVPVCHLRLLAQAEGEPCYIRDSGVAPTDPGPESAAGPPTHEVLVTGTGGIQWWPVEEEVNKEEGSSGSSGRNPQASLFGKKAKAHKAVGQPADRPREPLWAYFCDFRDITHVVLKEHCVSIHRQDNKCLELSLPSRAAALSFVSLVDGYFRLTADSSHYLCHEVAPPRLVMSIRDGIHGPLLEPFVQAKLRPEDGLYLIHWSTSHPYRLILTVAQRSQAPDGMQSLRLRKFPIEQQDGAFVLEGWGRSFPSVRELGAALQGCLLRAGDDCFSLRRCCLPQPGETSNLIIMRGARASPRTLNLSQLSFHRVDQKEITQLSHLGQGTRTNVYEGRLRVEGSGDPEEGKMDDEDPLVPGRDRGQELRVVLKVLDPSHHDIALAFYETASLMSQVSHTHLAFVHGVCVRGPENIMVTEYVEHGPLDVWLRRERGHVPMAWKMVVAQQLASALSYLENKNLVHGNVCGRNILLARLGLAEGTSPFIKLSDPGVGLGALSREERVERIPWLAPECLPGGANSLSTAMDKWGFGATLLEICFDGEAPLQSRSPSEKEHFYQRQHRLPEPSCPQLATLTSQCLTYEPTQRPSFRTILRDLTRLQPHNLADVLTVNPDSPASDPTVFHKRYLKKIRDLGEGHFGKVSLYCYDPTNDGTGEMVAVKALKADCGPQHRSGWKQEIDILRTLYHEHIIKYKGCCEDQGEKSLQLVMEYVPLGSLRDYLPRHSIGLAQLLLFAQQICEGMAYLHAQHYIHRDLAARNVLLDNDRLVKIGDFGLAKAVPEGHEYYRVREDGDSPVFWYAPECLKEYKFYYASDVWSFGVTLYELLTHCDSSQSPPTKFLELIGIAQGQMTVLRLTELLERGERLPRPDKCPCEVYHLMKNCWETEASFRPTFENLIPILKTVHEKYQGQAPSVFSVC
T2 sequence (P23458 whole entry): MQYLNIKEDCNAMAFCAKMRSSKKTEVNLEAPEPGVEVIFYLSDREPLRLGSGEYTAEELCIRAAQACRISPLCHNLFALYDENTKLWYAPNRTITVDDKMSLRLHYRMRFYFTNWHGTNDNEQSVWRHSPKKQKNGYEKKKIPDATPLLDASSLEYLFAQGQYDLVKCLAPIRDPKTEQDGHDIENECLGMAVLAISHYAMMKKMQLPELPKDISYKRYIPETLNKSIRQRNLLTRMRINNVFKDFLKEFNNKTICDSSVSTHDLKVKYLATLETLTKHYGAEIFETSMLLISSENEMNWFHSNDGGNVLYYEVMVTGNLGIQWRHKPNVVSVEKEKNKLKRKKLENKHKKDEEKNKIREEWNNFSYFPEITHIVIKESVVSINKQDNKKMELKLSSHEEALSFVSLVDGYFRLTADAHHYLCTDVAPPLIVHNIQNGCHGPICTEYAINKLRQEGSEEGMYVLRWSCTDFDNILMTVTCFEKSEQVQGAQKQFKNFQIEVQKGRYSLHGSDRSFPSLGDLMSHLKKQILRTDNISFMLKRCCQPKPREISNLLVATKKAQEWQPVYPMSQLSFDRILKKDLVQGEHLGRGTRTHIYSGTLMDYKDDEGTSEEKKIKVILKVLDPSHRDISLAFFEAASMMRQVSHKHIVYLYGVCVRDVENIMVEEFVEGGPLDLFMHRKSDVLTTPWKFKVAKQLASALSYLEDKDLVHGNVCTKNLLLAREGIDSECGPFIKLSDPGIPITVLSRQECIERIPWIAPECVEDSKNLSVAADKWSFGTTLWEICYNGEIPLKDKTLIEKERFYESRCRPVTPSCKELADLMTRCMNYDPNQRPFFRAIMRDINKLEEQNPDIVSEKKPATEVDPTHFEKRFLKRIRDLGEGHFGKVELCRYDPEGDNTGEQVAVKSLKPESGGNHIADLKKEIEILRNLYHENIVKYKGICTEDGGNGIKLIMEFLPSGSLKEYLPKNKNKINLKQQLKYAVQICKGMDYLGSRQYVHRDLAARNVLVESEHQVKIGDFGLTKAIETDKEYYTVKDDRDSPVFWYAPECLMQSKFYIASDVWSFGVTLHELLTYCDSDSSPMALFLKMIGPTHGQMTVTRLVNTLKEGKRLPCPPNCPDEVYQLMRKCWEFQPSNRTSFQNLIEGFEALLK
T1 sequence (O60674 whole entry): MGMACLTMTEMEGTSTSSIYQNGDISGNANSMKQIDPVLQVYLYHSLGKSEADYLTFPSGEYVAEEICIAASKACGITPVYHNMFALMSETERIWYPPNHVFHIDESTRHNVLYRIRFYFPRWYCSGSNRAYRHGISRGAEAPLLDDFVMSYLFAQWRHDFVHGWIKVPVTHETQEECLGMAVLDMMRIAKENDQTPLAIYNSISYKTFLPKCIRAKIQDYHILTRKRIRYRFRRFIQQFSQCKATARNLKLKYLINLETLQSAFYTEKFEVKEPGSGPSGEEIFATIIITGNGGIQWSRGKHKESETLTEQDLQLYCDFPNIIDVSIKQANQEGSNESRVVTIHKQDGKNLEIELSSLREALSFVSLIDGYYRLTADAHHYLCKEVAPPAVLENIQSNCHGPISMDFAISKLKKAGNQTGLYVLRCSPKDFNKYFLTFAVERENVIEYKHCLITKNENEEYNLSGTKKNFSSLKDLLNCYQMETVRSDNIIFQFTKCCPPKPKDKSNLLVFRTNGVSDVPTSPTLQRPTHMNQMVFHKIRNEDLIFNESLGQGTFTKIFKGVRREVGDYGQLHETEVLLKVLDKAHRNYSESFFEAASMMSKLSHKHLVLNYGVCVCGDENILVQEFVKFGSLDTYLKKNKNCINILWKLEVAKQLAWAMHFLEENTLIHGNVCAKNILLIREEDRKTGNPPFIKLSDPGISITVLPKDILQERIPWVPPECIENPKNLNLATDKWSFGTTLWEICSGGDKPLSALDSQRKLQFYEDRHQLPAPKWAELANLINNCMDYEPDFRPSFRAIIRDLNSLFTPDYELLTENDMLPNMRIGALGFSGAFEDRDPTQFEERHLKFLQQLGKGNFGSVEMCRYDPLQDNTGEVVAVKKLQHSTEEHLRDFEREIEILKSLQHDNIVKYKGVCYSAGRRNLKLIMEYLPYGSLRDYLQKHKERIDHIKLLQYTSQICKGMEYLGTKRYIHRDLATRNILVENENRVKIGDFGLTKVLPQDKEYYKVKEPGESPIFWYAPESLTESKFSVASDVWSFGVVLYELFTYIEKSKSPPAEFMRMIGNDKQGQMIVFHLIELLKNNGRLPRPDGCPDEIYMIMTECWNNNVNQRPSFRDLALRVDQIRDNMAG

As for `Cn1nc(-c2cn(C3CCCC3(C)C)c(=O)c3c(N)n[nH]c23)cc1N1CCOCC1` (stereo not drawn) [Example 77, 3-amino-5-(2,2-dimethylcyclopentyl)-7-(1-methyl-5-(morpholin-4-yl)-1H-pyrazol-3-yl)-1,5-dihydro-4H-pyrazolo[4,3-c]pyridin-4-one], the “JAK2 enzyme inhibitory activity (%, 1 μM)” value in test [1] (1 µM) was found to be 84%. The “JAK1 enzyme inhibitory activity (%, 1 μM)” value in test [2] (1 µM) was 79%. Further, the “TYK2 enzyme inhibitory activity (%, 1 μM)” value in test [3] (1 µM) is reported as 96%. Further, the “JAK3 enzyme inhibitory activity (%, 1 μM)” value in test [4] (1 µM) turned out to be 90%.

`CC(=O)N(C)C[C@H]1CCCN1c1cc(-c2cn(C(C3CC3)C3CC3)c(=O)c3c(N)n[nH]c23)nn1C` [Example 175, N-(((2R)-1-(3-(3-amino-5-(dicyclopropylmethyl)-4-oxo-4,5-dihydro-1H-pyrazolo[4,3-c]pyridin-7-yl)-1-methyl-1H-pyrazol-5-yl)pyrrolidin-2-yl)methyl)-N-methylacetamide]: the inhibition at 1 µM is 97% in test [1], 96% in test [2], 98% in test [3] and 98% in test [4].

Turning to `Cn1nc(-c2cn(-c3c(F)cccc3C#N)c(=O)c3c(N)n[nH]c23)cc1C1=CCOCC1` [Example 68, 2-(3-amino-7-(5-(3,6-dihydro-2H-pyran-4-yl)-1-methyl-1H-pyrazol-3-yl)-4-oxo-1,4-dihydro-5H-pyrazolo[4,3-c]pyridin-5-yl)-3-fluorobenzonitrile], the inhibition at 1 µM was 97% in test [1], 99% in test [2], 99% in test [3] and 99% in test [4].

For `C[C@@H](C1CC1)n1cc(-c2cc(N3CCS(=O)(=O)C(C)(C)C3)n(C)n2)c2[nH]nc(N)c2c1=O` [Example 95, 3-amino-5-((1S)-1-cyclopropylethyl)-7-(5-(2,2-dimethyl-1,1-dioxidothiomorpholin-4-yl)-1-methyl-1H-pyrazol-3-yl)-1,5-dihydro-4H-pyrazolo[4,3-c]pyridin-4-one], the inhibition at 1 µM is 100% in test [1], 100% in test [2], 99% in test [3] and 100% in test [4].

Take `Cn1nc(-c2cn(-c3c(F)cccc3F)c(=O)c3c(N)n[nH]c23)cc1N1CCC[C@@H]1CC#N` [Example 142, ((2R)-1-(3-(3-amino-5-(2,6-difluorophenyl)-4-oxo-4,5-dihydro-1H-pyrazolo[4,3-c]pyridin-7-yl)-1-methyl-1H-pyrazol-5-yl)pyrrolidin-2-yl)acetonitrile]: the inhibition at 1 µM in test [1] came out at 98%; in test [2], 98%; in test [3], 98%; in test [4], 99%.

On to `CC(C)[C@H](C)n1cc(-c2cc(N3CCOC(C)(C)C3)n(C)n2)c2[nH]nc(N)c2c1=O` [Example 30, 3-amino-7-(5-(2,2-dimethylmorpholin-4-yl)-1-methyl-1H-pyrazol-3-yl)-5-((2S)-3-methylbutan-2-yl)-1,5-dihydro-4H-pyrazolo[4,3-c]pyridin-4-one], for which the inhibition at 1 µM in test [1] amounted to 99%; in test [2] it was 97%; in test [3] it was 99%; in test [4], 99%.

As to `COC1CCN(c2cc(-c3cn([C@@H](C)C(C)C)c(=O)c4c(N)n[nH]c34)nn2C)CC1` [Example 14, 3-amino-7-(5-(4-methoxypiperidin-1-yl)-1-methyl-1H-pyrazol-3-yl)-5-((2S)-3-methylbutan-2-yl)-1,5-dihydro-4H-pyrazolo[4,3-c]pyridin-4-one], the inhibition at 1 µM in test [1] stood at 99%; in test [2], 97%; in test [3], 99%; in test [4], 99%.

Consider `CC(C)[C@H](C)n1cc(-c2cc(N3CCCC3)n(C)n2)c2[nH]nc(N)c2c1=O` [Example 27, 3-amino-5-((2S)-3-methylbutan-2-yl)-7-(1-methyl-5-(pyrrolidin-1-yl)-1H-pyrazol-3-yl)-1,5-dihydro-4H-pyrazolo[4,3-c]pyridin-4-one], for which the inhibition at 1 µM in test [1] was found to be 98%; in test [2], 98%; in test [3], 100%; in test [4] it was 100%.

For the compound `CC(C)[C@H](C)n1cc(-c2cc(N3CCC[C@@H]3CO)n(C)n2)c2[nH]nc(N)c2c1=O` [Example 22, 3-amino-7-(5-((2R)-2-(hydroxymethyl)pyrrolidin-1-yl)-1-methyl-1H-pyrazol-3-yl)-5-((2S)-3-methylbutan-2-yl)-1,5-dihydro-4H-pyrazolo[4,3-c]pyridin-4-one], the inhibition at 1 µM in test [1] was 98%; in test [2] it was 96%; in test [3] it was 99%; in test [4], 99%.
